What was measured:
5-HT1A = 5-HT1A (Homo sapiens, UniProt P08908); assay: receptor binding studies, 5-HT1A; details: read-out: pKd 5-HT1A (converted)
5-HT4 receptor [1] = assay: 5-HT-induced motility in dog Heidenhain gastric pouch; assay type: in vivo
Experimental: Compounds are tested for inhibition in the in vivo method described in “Stimulation of canine motility by BRL 24924, a new gastric prokinetic agent”, Bermudez et al, J. Gastrointestinal Motility, 1990, 2(4), 281-286.
Dogs with previously prepared Heidenhain gastric pouches are fasted overnight.

Alpha1 = assay: receptor binding studies, Alpha1
D3 = D3 (Homo sapiens, UniProt P35462); assay: receptor binding studies, D3; details: read-out: pKd D3 (converted)
GABA = assay: receptor binding studies, GABA
5-HT4 receptor [2] = molecular target: T1, 5-HT4 receptor (Cavia porcellus, UniProt O70528); assay: guinea pig distal colon longitudinal muscle-myenteric plexus, 5-HT-evoked contraction; assay type: cell-based
T1 construct: Longitudinal muscle-myenteric plexus preparations, approximately 3 cm long, are obtained from the distal colon region; from tissue; host or cells: guinea-pig distal colon longitudinal muscle-myenteric plexus
Experimental: Male guinea-pigs, weighing 250-400 g are used.
(§1) In some experiments, this tissue was dosed alternately with an approximately equi-effective concentration of the nicotine receptor stimulant, dimethylphenylpiperazinium (DMPP).

5-HT4 receptor [3] = molecular target: T2, 5-HT4 receptor (Rattus norvegicus, UniProt Q62758); assay: rat oesophageal tunica muscularis mucosae, relaxation to 5-HT; assay type: cell-based
T2 construct: The inner smooth muscle tube of the muscularis mucosae is isolated and mounted for isometric tension recording; from tissue; host or cells: rat oesophageal tunica muscularis mucosae
Text: Rat oesophageal tunica muscularis mucosae is set up according to Baxter et. al. Naunyn-Schmiedeberg's Arch.

[4] = test system: DMPP-evoked contractions (nicotinic receptor agonist); assay: guinea pig colon, DMPP-evoked contractions; assay type: cell-based; details: 10^−5M
Experimental: as §1

5-HT4 receptors = assay: antagonism of 5-HT-evoked tachycardia in anaesthetised piglets; assay type: in vivo, piglet
Text: All experiments were in 2-5 day old piglets in which the vagi were sectioned.

5-HT1D = 5-HT1D (Homo sapiens, UniProt P28221); assay: receptor binding studies, 5-HT1D; details: read-out: pKd 5-HT1D (converted)
5-HT1E = 5-HT1E (Homo sapiens, UniProt P28566); assay: receptor binding studies, 5-HT1E; details: read-out: pKd 5-HT1E (converted)
5-HT2C = 5-HT2C (Homo sapiens, UniProt P28335); assay: receptor binding studies, 5-HT2C; details: read-out: pKd 5-HT2C (converted)
Opiate mu = Opiate mu (Homo sapiens, UniProt P35372); assay: receptor binding studies, Opiate mu; details: read-out: pKi Opiate mu (converted)
[5] = test system: social interaction in rats; assay: social interaction test in rats (anxiolytic activity); assay type: in vivo, rat
Experimental: Rats (male, Sprague Dawleys, Charles River, 250-300 g) are housed in groups of eight in a holding room for 5 days. They are then housed singly in a room adjacent to the experimental room for 4 days prior to the experimental day. On the experimental day rats are administered vehicle, test compound or a benzodiazepine anxiolytic, chlordiazepoxide, p.o. in pairs (n=8-16), at 15 minute intervals beginning at 10.00 a.m. […] The box is made of white perspex 54 cm×37 cm×26 cm with a transparent perspex front side and no lid. The floor is divided up into 24 squares and the box is brightly lit (115 lux). Active social interactive behaviours (grooming, sniffing, climbing over or under, following, biting, mounting and boxing) are scored blind for the next 15 min by remote video monitoring to give total interaction scores. The number of squares crossed by each rat is also scored and summed. After the end of each test the box is carefully wiped.

Opiate kappa = Opiate kappa (Homo sapiens, UniProt P41145); assay: receptor binding studies, Opiate kappa; details: read-out: pKi Opiate kappa (converted)
H1 = H1 (Homo sapiens, UniProt P35367); assay: receptor binding studies, H1; details: read-out: pKd H1 (converted)
BDZ = assay: receptor binding studies, BDZ
5-HT2B receptor = molecular target: T3, 5-HT2B receptor (Rattus norvegicus, UniProt P30994); assay: functional studies on the rat stomach fundus; assay type: cell-based
T3 construct: from tissue; host or cells: rat stomach fundus

Opiate delta = Opiate delta (Homo sapiens, UniProt P41143); assay: receptor binding studies, Opiate delta; details: read-out: pKi Opiate delta (converted)
5-HT2A = 5-HT2A (Homo sapiens, UniProt P28223); assay: receptor binding studies, 5-HT2A; details: read-out: pKd 5-HT2A (converted)
5-HT3 = 5-HT3 (Homo sapiens, UniProt P46098); assay: receptor binding studies, 5-HT3; details: read-out: pKd 5-HT3 (converted)
D2 = D2 (Homo sapiens, UniProt P14416); assay: receptor binding studies, D2; details: read-out: pKd D2 (converted)
Chain of D2 (P14416 whole entry): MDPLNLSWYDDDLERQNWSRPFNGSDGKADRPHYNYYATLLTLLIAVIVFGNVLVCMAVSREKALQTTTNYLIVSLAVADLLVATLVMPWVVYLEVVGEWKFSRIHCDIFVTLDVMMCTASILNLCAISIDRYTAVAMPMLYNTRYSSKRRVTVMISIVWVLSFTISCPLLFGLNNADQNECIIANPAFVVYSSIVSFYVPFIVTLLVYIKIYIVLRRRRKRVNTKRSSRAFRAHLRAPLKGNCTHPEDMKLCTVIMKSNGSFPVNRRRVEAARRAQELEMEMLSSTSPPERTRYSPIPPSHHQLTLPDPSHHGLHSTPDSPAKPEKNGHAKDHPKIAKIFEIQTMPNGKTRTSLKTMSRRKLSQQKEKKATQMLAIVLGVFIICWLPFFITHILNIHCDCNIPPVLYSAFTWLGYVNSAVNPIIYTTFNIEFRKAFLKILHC

T1 sequence (O70528 whole entry): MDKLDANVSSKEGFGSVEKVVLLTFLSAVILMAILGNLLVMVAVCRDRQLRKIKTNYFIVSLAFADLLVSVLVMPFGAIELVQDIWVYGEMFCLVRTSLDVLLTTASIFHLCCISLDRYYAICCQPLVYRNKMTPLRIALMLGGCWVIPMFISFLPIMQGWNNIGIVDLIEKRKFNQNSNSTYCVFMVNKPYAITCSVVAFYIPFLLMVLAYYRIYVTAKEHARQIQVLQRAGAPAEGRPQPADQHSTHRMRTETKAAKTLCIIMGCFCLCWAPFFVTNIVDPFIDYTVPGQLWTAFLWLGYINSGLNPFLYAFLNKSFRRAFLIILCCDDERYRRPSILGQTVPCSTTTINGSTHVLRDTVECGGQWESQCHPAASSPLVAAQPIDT
Chain of Opiate mu (P35372 whole entry): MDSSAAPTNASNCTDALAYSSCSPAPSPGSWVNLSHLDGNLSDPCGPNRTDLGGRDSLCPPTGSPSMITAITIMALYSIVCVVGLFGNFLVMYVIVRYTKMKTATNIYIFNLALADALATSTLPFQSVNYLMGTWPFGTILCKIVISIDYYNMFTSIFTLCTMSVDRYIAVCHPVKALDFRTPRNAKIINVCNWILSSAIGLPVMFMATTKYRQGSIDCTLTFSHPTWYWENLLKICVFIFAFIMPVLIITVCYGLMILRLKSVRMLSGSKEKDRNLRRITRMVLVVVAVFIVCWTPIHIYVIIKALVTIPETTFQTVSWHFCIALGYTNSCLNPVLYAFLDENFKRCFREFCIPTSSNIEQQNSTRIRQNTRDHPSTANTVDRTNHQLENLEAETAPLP
Chain of 5-HT1E (P28566 whole entry, species assumed): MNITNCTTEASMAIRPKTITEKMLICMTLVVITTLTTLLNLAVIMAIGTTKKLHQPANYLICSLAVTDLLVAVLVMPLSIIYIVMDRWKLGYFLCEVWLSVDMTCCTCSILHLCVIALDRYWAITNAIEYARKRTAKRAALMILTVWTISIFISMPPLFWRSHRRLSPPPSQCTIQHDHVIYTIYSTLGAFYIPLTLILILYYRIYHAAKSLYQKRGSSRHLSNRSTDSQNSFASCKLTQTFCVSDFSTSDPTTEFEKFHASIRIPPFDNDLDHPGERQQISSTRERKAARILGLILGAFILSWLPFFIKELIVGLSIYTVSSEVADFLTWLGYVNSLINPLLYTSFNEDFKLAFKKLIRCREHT
Chain of H1 (P35367 whole entry): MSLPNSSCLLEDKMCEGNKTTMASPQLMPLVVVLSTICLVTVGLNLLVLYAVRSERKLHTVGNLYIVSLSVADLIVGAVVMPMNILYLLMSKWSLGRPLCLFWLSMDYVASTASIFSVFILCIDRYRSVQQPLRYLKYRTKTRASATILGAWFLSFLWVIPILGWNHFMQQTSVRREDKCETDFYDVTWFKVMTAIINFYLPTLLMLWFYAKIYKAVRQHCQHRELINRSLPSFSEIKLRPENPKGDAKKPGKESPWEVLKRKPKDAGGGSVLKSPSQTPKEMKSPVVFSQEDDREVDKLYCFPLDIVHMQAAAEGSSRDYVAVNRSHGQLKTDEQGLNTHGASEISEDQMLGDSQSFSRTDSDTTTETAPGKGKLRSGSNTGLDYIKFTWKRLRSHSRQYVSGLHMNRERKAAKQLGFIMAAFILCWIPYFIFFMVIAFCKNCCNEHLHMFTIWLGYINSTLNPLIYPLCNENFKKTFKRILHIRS
Chain of Opiate delta (P41143 whole entry): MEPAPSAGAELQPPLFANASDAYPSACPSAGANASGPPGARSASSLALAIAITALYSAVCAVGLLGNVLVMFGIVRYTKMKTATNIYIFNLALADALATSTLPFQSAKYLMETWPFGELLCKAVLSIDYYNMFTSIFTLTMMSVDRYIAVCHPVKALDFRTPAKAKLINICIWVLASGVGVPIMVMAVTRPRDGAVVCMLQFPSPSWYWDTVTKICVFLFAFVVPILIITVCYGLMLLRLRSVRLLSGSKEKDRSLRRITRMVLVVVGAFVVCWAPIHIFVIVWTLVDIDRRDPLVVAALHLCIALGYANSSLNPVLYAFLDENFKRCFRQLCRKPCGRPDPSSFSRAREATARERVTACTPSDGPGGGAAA
Chain of 5-HT1D (P28221 whole entry, species assumed): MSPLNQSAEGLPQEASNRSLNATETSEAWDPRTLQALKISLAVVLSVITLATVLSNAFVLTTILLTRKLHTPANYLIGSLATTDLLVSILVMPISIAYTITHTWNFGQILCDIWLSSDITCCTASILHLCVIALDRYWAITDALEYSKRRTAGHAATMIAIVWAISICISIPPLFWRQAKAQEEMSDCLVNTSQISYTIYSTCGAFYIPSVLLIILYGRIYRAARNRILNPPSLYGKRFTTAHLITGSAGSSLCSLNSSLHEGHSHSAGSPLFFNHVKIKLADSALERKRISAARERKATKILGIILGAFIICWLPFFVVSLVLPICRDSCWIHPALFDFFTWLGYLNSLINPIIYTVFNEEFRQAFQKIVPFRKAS
Chain of 5-HT1A (P08908 whole entry, species assumed): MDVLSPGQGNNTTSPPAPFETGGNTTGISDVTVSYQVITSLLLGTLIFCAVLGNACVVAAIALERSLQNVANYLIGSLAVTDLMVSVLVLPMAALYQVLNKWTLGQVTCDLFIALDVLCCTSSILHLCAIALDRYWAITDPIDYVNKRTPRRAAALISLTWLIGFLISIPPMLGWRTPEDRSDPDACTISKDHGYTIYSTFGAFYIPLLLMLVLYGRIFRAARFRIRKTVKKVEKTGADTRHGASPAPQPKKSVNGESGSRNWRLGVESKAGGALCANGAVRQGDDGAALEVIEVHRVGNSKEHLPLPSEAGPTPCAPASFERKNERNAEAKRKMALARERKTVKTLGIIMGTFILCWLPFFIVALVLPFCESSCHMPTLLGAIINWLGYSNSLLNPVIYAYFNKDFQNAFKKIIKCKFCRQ
T3 sequence (P30994 whole entry): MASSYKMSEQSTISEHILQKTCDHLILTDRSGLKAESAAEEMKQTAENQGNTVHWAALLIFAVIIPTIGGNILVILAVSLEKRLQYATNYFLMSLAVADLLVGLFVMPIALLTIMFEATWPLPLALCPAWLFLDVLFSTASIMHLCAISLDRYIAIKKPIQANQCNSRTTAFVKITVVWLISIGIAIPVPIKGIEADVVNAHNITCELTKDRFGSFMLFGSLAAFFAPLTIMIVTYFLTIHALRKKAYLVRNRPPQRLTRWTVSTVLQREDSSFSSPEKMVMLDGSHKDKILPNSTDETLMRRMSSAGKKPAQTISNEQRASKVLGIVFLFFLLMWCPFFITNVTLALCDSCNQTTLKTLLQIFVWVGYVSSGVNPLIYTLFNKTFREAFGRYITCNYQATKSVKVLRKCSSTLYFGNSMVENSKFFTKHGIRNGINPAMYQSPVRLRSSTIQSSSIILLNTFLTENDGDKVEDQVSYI
Chain of 5-HT3 (P46098 24-478, species assumed): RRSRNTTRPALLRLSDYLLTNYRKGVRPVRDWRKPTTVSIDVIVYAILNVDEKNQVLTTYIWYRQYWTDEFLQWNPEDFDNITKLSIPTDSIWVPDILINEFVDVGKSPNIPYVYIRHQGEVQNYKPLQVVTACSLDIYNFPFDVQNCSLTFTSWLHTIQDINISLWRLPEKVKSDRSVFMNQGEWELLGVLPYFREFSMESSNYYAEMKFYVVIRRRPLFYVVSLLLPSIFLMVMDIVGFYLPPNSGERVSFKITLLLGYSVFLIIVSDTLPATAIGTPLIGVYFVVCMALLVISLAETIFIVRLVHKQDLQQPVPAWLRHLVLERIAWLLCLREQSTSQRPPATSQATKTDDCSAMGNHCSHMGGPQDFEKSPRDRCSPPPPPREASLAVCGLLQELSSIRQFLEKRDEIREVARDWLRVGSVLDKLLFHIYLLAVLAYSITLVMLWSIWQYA
Chain of Opiate kappa (P41145 whole entry): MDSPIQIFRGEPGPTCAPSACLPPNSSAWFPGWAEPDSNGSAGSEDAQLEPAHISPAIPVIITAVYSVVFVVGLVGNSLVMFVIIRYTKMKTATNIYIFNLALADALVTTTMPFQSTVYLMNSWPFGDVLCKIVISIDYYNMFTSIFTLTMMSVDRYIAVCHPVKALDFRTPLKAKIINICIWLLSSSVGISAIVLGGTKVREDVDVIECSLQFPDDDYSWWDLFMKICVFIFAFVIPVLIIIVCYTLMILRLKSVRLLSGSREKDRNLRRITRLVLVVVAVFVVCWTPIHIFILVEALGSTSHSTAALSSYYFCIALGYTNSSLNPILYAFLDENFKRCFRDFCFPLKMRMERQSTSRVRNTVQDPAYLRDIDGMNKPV

Structure (SMILES): CCCCN1CCC(CNC(=O)c2c3n(c4ccccc24)CCCO3)CC1 [SB-207266-A, N-[(1-^nbutyl-4-piperidinyl)methyl]-3,4-dihydro-2H-[1,3]oxazino[3,2-a]indole-10-carboxamide]
- Kd (5-HT1A): > 10000 nM
- effect on basal motility (5-HT4 receptor [1]; any dose): no effect
- ID50, antagonism of the contractile response to 5-HT (5-HT4 receptor [1]; iv): 1.3 (Confidence Limits 0.1-14.0) ug.kg^−1
- ID50, antagonism of the contractile response to 5-HT (5-HT4 receptor [1]; po): 9.6 (CL 0.7-128) ug.kg^−1
- pKd Alpha1 (Alpha1): <5.52
- Kd (D3): 2950 nM
- pKd GABA (GABA): >5.00
- contraction evoked by the 5-HT4 receptor partial agonist BIMU 1 (5-HT4 receptor [2]): reduced the maximum response to BIMU 1
- maximum response to 5-HT (5-HT4 receptor [2]; 3×10^−8 M and above): reduced in a concentration-dependent manner
- time for recovery of responses to 5-HT upon washout (5-HT4 receptor [2]; highest concentrations (which reduce maximum 5-HT-evoked contractions)): ≤ 90 min
- type of antagonism of 5-HT response (5-HT4 receptor [3]): non-surmountable antagonist
- DMPP-evoked contractions [4]: unaffected
- antagonism of 5-HT-evoked tachycardia (5-HT4 receptors; 0.1, 0.3 or 1.0 ugkg^−1 intravenously, n=2 each): antagonised the 5-HT-evoked tachycardia in a dose-dependent manner
- recovery from antagonism (5-HT4 receptors; 0.3, 1.0 ugkg^−1 i.v., over the duration of the experiment): incomplete
- Kd (5-HT1D): > 10000 nM
- Kd (5-HT1E): > 10000 nM
- Kd (5-HT2C): 2690 nM
- Ki (Opiate mu): < 1000 nM
- total interaction scores ([5]; 0.01, 1, 10 mg.kg^−1, 1 h after administration): Significantly increased
- locomotion during the test ([5]; rat, in vivo): not accompanied by any alteration in locomotion
- Ki (Opiate kappa): < 1000 nM
- Kd (H1): 3980 nM
- pKd BDZ (BDZ): >5.00
- affinity for the 5-HT2B receptor (5-HT2B receptor): 7.47
- Ki (Opiate delta): < 1000 nM
- Kd (5-HT2A): 1290 nM
- Kd (5-HT3): 1150 nM
- Kd (D2): 2340 nM

Source: US20050032866A1, “The use of 5ht4 receptor antagonists in the prophylaxis or treatment of certain cardiovascular conditions” (priority 2000, published 2005)
